Patent US7462600B2, “Macrolides” (Pfizer Inc, priority 2004, dated 2008)
Values after ≈ are worked out from the molar mass of the structure shown. Read-outs that look alike come from different tables or passages of the source.

Tests used:
Assay type in all cases: cell-based
[1] = system: Streptococcus pneumoniae 1175; conditions: microtiter broth dilution
Procedure, shortened: (§1)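 Microtiter broth dilution; interpretation per NCCLS M100-S14; endpoint = MIC. Stock: 40 mg/ml in DMSO.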

[2] = system: Streptococcus pneumoniae 1095; conditions: microtiter broth dilution
Procedure, shortened: as §1

[3] = system: Streptococcus pneumoniae 1016; assay: MIC, microtiter broth dilution (NCCLS M100-S14), S. pneumoniae 1016 (susceptible)
Procedure, shortened: as §1

[4] = system: Streptococcus pyogenes 1079; assay: MIC, microtiter broth dilution (NCCLS M100-S14), S. pyogenes 1079 (ermB)
Procedure, shortened: as §1

[5] = system: Haemophilus influenzae 1218; assay: MIC, microtiter broth dilution (NCCLS M100-S14), H. influenzae 1218 (susceptible)
Procedure, shortened: as §1

[6] = S. pneumoniae 1016 (susceptible)
[7] = H. influenzae 1218 (susceptible)

| SMILES | MIC S. pneumo. 1175 ([1]; S. pneumoniae 1175 (mefA)) [µg/mL] | MIC S. pneumo. 1095 ([2]; S. pneumoniae 1095 (ermB)) [µg/mL] | MIC S. pneumo. 1016 [3, 6] [µg/mL] | MIC S. pyogenes 1079 ([4]; S. pyogenes 1079 (ermB)) [µg/mL] | MIC H. influenzae 1218 [5, 7] [µg/mL] | MIC S. pneumo. 1175 ([1]; Streptococcus pneumoniae 1175) [µg/mL] | MIC S. pneumo. 1095 ([2]; Streptococcus pneumoniae 1095) [µg/mL] | MIC S. pneumo. 1016 ([3]; Streptococcus pneumoniae 1016) [µg/mL] | MIC S. pyogenes 1079 ([4]; Streptococcus pyogenes 1079) [µg/mL] | MIC H. influenzae 1218 ([5]; Haemophilus influenzae 1218) [µg/mL] |
| --- | --- | --- | --- | --- | --- | --- | --- | --- | --- | --- |
| CCC1OC(=O)C(C)C(=O)C(C)C(OC2OC(C)CC(N(C)C)C2O)C(C)(OC)CC(C)C(=O)C(C)C2N(CC3CCN(Cc4cccc5nccnc45)C3)C(=O)OC12C [Example 11.02, 3-descladinosyl-11,12-dideoxy-6-O-methyl-3-oxo-12,11-(oxycarbonyl-(1-((quinoxalin-8-yl)-methyl)-((S)-pyrrolidin-3-yl)-methyl)-imino)-erythromycin A] | 0.25 (≈ 0.298 µM) | <0.06 | <0.06 | 4 (≈ 4.77 µM) | 0.5 (≈ 0.597 µM) | – | – | – | – | – |
| CCC1OC(=O)C(C)C(=O)C(C)C(OC2OC(C)CC(N(C)C)C2O)C(C)(OC)CC(C)C(=O)C(C)C2N(CC3CCN(Cc4c[nH]nn4)C3)C(=O)OC12C (centres unmarked) [13.07] | 4 (≈ 5.15 µM) | >64.00 | <0.06 | >64.00 | 2 (≈ 2.57 µM) | – | – | – | – | – |
| CCC1OC(=O)C(C)C(=O)C(C)C(OC2OC(C)CC(N(C)C)C2O)C(C)(OC)CC(C)C(=O)C(C)C2N(CC3CN(Cc4cnc5ccccc5c4)C3)C(=O)OC12C (centres unmarked) [4.10] | – | – | – | – | – | <0.06 | 1 (≈ 1.22 µM) | <0.06 | 16 (≈ 19.4 µM) | <0.06 |
| CCC1OC(=O)C(C)C(=O)C(C)C(OC2OC(C)CC(N(C)C)C2O)C(C)(OC)CC(C)C(=O)C(C)C2N(C3CN(C(=O)Nc4cccc5nccnc45)C3)C(=O)OC12C (centres unmarked) [Example 2.09, N-(quinoxalin-8-yl) aminocarbonyl] | – | – | – | – | – | 0.25 (≈ 0.298 µM) | 16 (≈ 19.1 µM) | <0.06 | >64.00 | 8 (≈ 9.54 µM) |
| CCC1OC(=O)C(C)C(=O)C(C)C(OC2OC(C)CC(N(C)C)C2O)C(C)(OC)CC(C)C(=O)C(C)C2N(CC3CCCN3C(=O)c3ccc(C)[nH]c3=O)C(=O)OC12C (centres unmarked) [10.48] | 0.5 (≈ 0.602 µM) | 4 (≈ 4.81 µM) | <0.06 | >64.00 | 1 (≈ 1.2 µM) | – | – | – | – | – |
| CCC1OC(=O)C(C)C(=O)C(C)C(OC2OC(C)CC(N(C)C)C2O)C(C)(OC)CC(C)C(=O)C(C)C2N(CC3CCCN3C(=O)c3cccc4[nH]cnc34)C(=O)OC12C (centres unmarked) [10.52] | <0.06 | <0.06 | <0.06 | 64 (≈ 76.2 µM) | 0.25 (≈ 0.298 µM) | – | – | – | – | – |
| CCC1OC(=O)C(C)C(=O)C(C)C(OC2OC(C)CC(N(C)C)C2O)C(C)(OC)CC(C)C(=O)C(C)C2N(C3CCN(Cc4ccnc5ncccc45)C3)C(=O)OC12C [Example 9.05, 3-descladinosyl-11,12-dideoxy-6-O-methyl-3-oxo-12,11-(oxycarbonyl-(1-((1,8-naphthyridin-4-yl)-methyl)-(R)-pyrrolidin-3-yl)-imino)erythromycin A] | 0.5 (≈ 0.607 µM) | 0.5 (≈ 0.607 µM) | <0.06 | 8 (≈ 9.71 µM) | 8 (≈ 9.71 µM) | – | – | – | – | – |
| CCC1OC(=O)C(C)C(=O)C(C)C(OC2OC(C)CC(N(C)C)C2O)C(C)(OC)CC(C)C(=O)C(C)C2N(C3CN(S(=O)(=O)c4ccc5sc(C)nc5c4)C3)C(=O)OC12C (centres unmarked) [Example 3.90, 3-descladinosyl-11,12-dideoxy-6-O-methyl-3-oxo-12,11-(oxycarbonyl-(1-(2-methylbenzo[d]thiazole-5-sulfonyl)-azetidin-3-yl)-imino)-erythromycin A] | – | – | – | – | – | <0.06 | <0.06 | <0.06 | 8 (≈ 9.1 µM) | 0.25 (≈ 0.284 µM) |
| CCC1OC(=O)C(C)C(=O)C(C)C(OC2OC(C)CC(N(C)C)C2O)C(C)(OC)CC(C)C(=O)C(C)C2N(CC3CCN(Cc4ccnc5ccccc45)C3)C(=O)OC12C [Example 11.11, 3-descladinosyl-11,12-dideoxy-6-O-methyl-3-oxo-12,11-(oxycarbonyl-(1-((quinolin-4-yl)-methyl)-((S)-pyrrolidin-3-yl)-methyl)-imino)-erythromycin A] | 0.12 (≈ 0.143 µM) | 0.12 (≈ 0.143 µM) | <0.06 | 8 (≈ 9.56 µM) | 1 (≈ 1.19 µM) | – | – | – | – | – |
| CCC1OC(=O)C(C)C(=O)C(C)C(OC2OC(C)CC(N(C)C)C2O)C(C)(OC)CC(C)C(=O)C(C)C2N(CC3CCN(C(=O)c4cnc5ccccc5n4)C3)C(=O)OC12C (centres unmarked) [13.13] | 0.5 (≈ 0.587 µM) | >64.00 | <0.06 | >64.00 | 16 (≈ 18.8 µM) | – | – | – | – | – |
| CCC1OC(=O)C(C)C(=O)C(C)C(OC2OC(C)CC(N(C)C)C2O)C(C)(OC)CC(C)C(=O)C(C)C2N(C3CN(S(=O)(=O)c4cccc(-c5csnn5)c4)C3)C(=O)OC12C (centres unmarked) [Example 3.63, 3-descladinosy-11,12-dideoxy-6-O-methyl-3-oxo-12,11-(oxycarbonyl-(1-(3-(1,2,3-thiadiazol-4-yl)benzenesulfonyl)-azetidin-3-yl)-imino)-erythromycin A] | – | – | – | – | – | <0.06 | <0.06 | <0.06 | 0.25 (≈ 0.28 µM) | <0.06 |
| CC[C@H]1OC(=O)[C@H](C)C(=O)[C@H](C)[C@@H](O[C@@H]2O[C@H](C)C[C@H](N(C)C)[C@H]2O)[C@](C)(OC)C[C@@H](C)C(=O)[C@H](C)[C@H]2N(CC3(O)CN(C(=O)c4cc5cccnc5[nH]4)C3)C(=O)O[C@]12C [7.26] | 0.25 (≈ 0.297 µM) | 0.12 (≈ 0.143 µM) | <0.06 | >64.00 | 0.5 (≈ 0.594 µM) | – | – | – | – | – |
| CCC1OC(=O)C(C)C(=O)C(C)C(OC2OC(C)CC(N(C)C)C2O)C(C)(OC)CC(C)C(=O)C(C)C2N(C3CN(S(=O)(=O)c4ccc(C)c5ncccc45)C3)C(=O)OC12C (centres unmarked) [Example 3.111, 3-descladinosyl-11,12-dideoxy-6-O-methyl-3-oxo-12,11-(oxycarbonyl-(1-(8-methylquinoline-5-sulfonyl)-azetidin-3-yl)-imino)erythromycin A] | – | – | – | – | – | <0.063 | <0.063 | <0.063 | 1 (≈ 1.15 µM) | 0.5 (≈ 0.573 µM) |
| CCC1OC(=O)C(C)C(=O)C(C)C(OC2OC(C)CC(N(C)C)C2O)C(C)(OC)CC(C)C(=O)C(C)C2N(C3CN(Cc4ccnc5c(OC)cccc45)C3)C(=O)OC12C (centres unmarked) [Example 1.84, 3-descladinosyl-11,12-dideoxy-6-O-methyl-3-oxo-12,11-(oxycarbonyl-(1-(8-methoxyquinoline-4-methyl)-azetidin-3-yl)-imino)erythromycin A] | – | – | – | – | – | <0.063 | <0.063 | <0.063 | 8 (≈ 9.53 µM) | 2 (≈ 2.38 µM) |
| CCC1OC(=O)C(C)C(=O)C(C)C(OC2OC(C)CC(N(C)C)C2O)C(C)(OC)CC(C)C(=O)C(C)C2N(CC3CN(Cc4c[nH]c5cnccc45)C3)C(=O)OC12C (centres unmarked) [4.19] | – | – | – | – | – | 1 (≈ 1.23 µM) | <0.06 | <0.06 | 64 (≈ 78.8 µM) | 0.5 (≈ 0.616 µM) |
| CCC1OC(=O)C(C)C(=O)C(C)C(OC2OC(C)CC(N(C)C)C2O)C(C)(OC)CC(C)C(=O)C(C)C2N(C3CN(C(c4ccccc4)c4ccncc4)C3)C(=O)OC12C (centres unmarked) [Example 1.69, 3-descladinosyl-11,12-dideoxy-6-O-methyl-3-oxo-12,11-(oxycarbonyl-(1-(phenyl-(pyridin-4-yl)-methyl)-azetidin-3-yl)-imino)erythromycin A] | – | – | – | – | – | <0.06 | <0.06 | <0.06 | 8 (≈ 9.58 µM) | 1 (≈ 1.2 µM) |
| CC[C@H]1OC(=O)[C@H](C)C(=O)[C@H](C)[C@@H](O[C@@H]2O[C@H](C)C[C@H](N(C)C)[C@H]2O)[C@](C)(OC)C[C@@H](C)C(=O)[C@H](C)[C@H]2N(C[C@H]3CCCN3C(=O)c3cccc4ncsc34)C(=O)O[C@]12C.O=CO [10.22] | 2 | 0.12 | <0.06 | 64 | 2.5 | – | – | – | – | – |
| CCC1OC(=O)C(C)C(=O)C(C)C(OC2OC(C)CC(N(C)C)C2O)C(C)(OC)CC(C)C(=O)C(C)C2N(CC3CCCN3C(=O)c3cccc4cccnc34)C(=O)OC12C.O=CO (centres unmarked) [10.11] | 4 | 0.5 | <0.06 | >64.00 | 16 | – | – | – | – | – |
| CCC1OC(=O)C(C)C(=O)C(C)C(OC2OC(C)CC(N(C)C)C2O)C(C)(OC)CC(C)C(=O)C(C)C2N(C3CN(S(=O)(=O)c4cnn(-c5ccccn5)c4)C3)C(=O)OC12C (centres unmarked) [Example 3.21, 1-(pyridin-2-yl)-1H-pyrazole-4-sulfonyl] | – | – | – | – | – | <0.06 | <0.06 | <0.06 | >64.00 | 1 (≈ 1.14 µM) |
